# Positions of bridges follow the written chain, without caps; N, C: chain ends. No end group written: not given here.
# Tests used:
# [1] = Burn treatment test: body weight and abnormal syndrome; type: in vivo, SD (Sprague-Dawley) rats; settings: for BODY WEIGHTS: skin
# Method: (§1) The experiment was carried out with 55 male SD (Sprague-Dawley) rats that were divided into […] groups: 5 rats for normal group (1 group, G1), 9-10 rats for negative control (1 group, G2), 30 rats for experimental group (3 groups, 10 rats in each group, G3, G4, G5), and 9-10 rats for positive control (1 group, G6). In the remaining groups except normal group, burned male SD rats was used for experiment. After SD rats were anesthesized, 2-degree burns, 2 cm in diameter, were induced on the SD rats using an aluminum electric soldering iron.
# (§2) Test substance HU022 (SEQ ID NO:1) (G3, G4, G5), normal saline solution (G2) and Fiblast (G6) were applied to the skin of the burned male SD rats repeatedly once a day seven times a week for 7 days. Fiblast was applied to control group (G6) in 10 μg/dose/head, and the experimental group was divided into 3 groups and test substance was applied to each group in 3.3 μg/dose/head (G3), 10 μg/dose/head (G4), and 30 μg/dose/head (G5).
# (§3) With the measurement results, parametric comparison determined significance via Student's t-test and One-Way ANOVA, and significance testing relative to negative control was conducted. Furthermore, with the histopathology test results of burns, Kruskal-Wallis' H-test was conducted, and when significance between groups was identified, comparison between groups was performed through Mann-Whitney U-test. The computation program for statistics was SPSS 10.1 K. P<0.05 was determined to be statistically significant.
# [2] = test system: 2-degree burns of male SD rats; test: Burn treatment test: burn wound area; type: in vivo, SD (Sprague-Dawley) rats
# Method: as §1, §2
# After burn was induced, imaging was performed before test substance was applied, and imaging was performed on 1st, 4th, 8th, 11th, and 15th days, and after imaging, test substance was applied and the applied site was covered with gauze and wrapped with tegaderm. Furthermore, images taken for measuring the burn wound area were analyzed using Image analyzer program.
# as §3
# [3] = test system: hair growth of C57BL/6 mouse; test: Hair growth test: hair weight; type: in vivo
# Method: (§4) This test was conducted to assess the influence on hair growth of C57BL/6 mouse when 4 types of test substances, HU024 (SEQ ID NO:2), HU025 (SEQ ID NO:3), HU026 (SEQ ID NO:4), and HU027 (SEQ ID NO:5), were applied to the skin for 14 days.
# (§5) The group design was set to negative control (sterile water for injection G1), test substance HU024 (SEQ ID NO:2) 20 ug/head/day (G2), test substance HU024 (SEQ ID NO:2) 60 ug/head/day (G3), test substance HU025 (SEQ ID NO:3) 20 ug/head/day (G4), test substance HU025 (SEQ ID NO:3) 60 ug/head/day (G5), test substance HU026 (SEQ ID NO:4) 20 ug/head/day (G6), test substance HU026 (SEQ ID NO:4) 60 ug/head/day (G7), test substance HU027 (SEQ ID NO:5) 20 ug/head/day (G8), test substance HU027 (SEQ ID NO:5) 60 ug/head/day (G9) and positive control minoxyl 3% (G10) administered groups. Each group had 10 animals.
# (§6) After the animal was put under anesthesia using zoletil (1 mL/kg, i.p), the back of the animal was primarily shaved using a depilator, and Veet depilatory was evenly applied on the back. After about 5 minutes, the applied site was cleaned up using gauze moistened with sterile water for injection. Only animal whose shaved back was scarlet in color was used for group separation. The test substance was applied to the same site daily once per day, 7 times per week for 14 days, and the test substance was evenly applied to the shaved site (on the back) by rubbing with a glass rod about 10 times.
# (§7) The hair growing area (%) relative to the test substance-applied area was measured and determined, and Image analyzer program (Image Pro Plus ver. 6.3, Cybermetics, USA) was used to measure. It was measured on the 1st, 3rd, 7th, 10th and 14th days after test substance administration. Imaging was performed together with the measurements on the date when the hair area was measured. On the next day after the end of application, the animals were killed by CO2 gas, and hair on the hair growing area was removed by a depilator and hair weight was measured.
# (§8) The measurement results were analyzed using SPSS (ver. 10.1K), Duncan t-test for weight changes was conducted through one-way analysis of variance, hair weight was compared between groups using Student's t-test, and hair growing area was compared between groups through nonparametric multiple comparison procedures Whitney-Mann methods. P<0.05 was determined to be statistically significant.
# [4] = test system: hair growth of C57BL/6 mouse; test: Hair growth test: hair growing area; type: in vivo
# Method: as §4, §5, §6
# as §7, with “It was measured on the 1st, 3rd, 7th, 10th and 14th days after test substance administration.” left out
# as §8
# skin = settings: in vivo
# Method: Women aged 30-65 having wrinkles around eyes were tested. […] They had second and third visits at the interval of 2 weeks after the start of use, and at each visit, were required to respond to various types of assessment and investigation defined in the experiment.
# Furthermore, safety assessment was performed, and for safety of clinical test product, in all subjects having used the test product at least once, abnormal responses found at the second week and fourth week after use and abnormal responses reported during the test period were all used as safety assessment data of the product.
substance,measurement,setting,value
"HU022: polypeptide consisting of 452nd-509th amino acids of ADAM 15 (GenBank AAH14566.1), 58 amino acids; commercial product (EYEGENE Inc.)",BODY WEIGHTS,"[1]; 3.3 μg/head/day, Day 1",261.24 ± 10.05 g
same,BODY WEIGHTS,"[1]; 3.3 μg/head/day, Day 8",269.41 ± 17.57 g
same,BODY WEIGHTS,"[1]; 3.3 μg/head/day, Day 15",300.31 ± 20.36 g
same,BODY WEIGHTS,"[1]; 10 μg/head/day, Day 1",260.59 ± 9.27 g
same,BODY WEIGHTS,"[1]; 10 μg/head/day, Day 8",267.86 ± 5.20 g
same,BODY WEIGHTS,"[1]; 10 μg/head/day, Day 15",296.55 ± 8.86 g
same,BODY WEIGHTS,"[1]; 30 μg/head/day, Day 1",257.94 ± 9.23 g
same,BODY WEIGHTS,"[1]; 30 μg/head/day, Day 8",259.49 ± 15.34 g
same,BODY WEIGHTS,"[1]; 30 μg/head/day, Day 15",284.87 ± 17.06 g
same,abnormal syndrome after application,"[1]; burned male SD rats, skin application",any abnormal syndrome was not observed
same,BURN WOUNDED AREA,"[2]; 3.3 μg/head/day, Day 1",4.8 ± 0.8 cm^2
same,BURN WOUNDED AREA (%),"[2]; 3.3 μg/head/day, Day 1",100.0 ± 16.3%
same,BURN WOUNDED AREA,"[2]; 3.3 μg/head/day, Day 4",3.8 ± 0.6 cm^2
same,BURN WOUNDED AREA (%),"[2]; 3.3 μg/head/day, Day 4",79.2 ± 13.571%
same,BURN WOUNDED AREA,"[2]; 3.3 μg/head/day, Day 8",2.9 ± 0.6 cm^2
same,BURN WOUNDED AREA (%),"[2]; 3.3 μg/head/day, Day 8",60.8 ± 11.9%
same,BURN WOUNDED AREA,"[2]; 3.3 μg/head/day, Day 11",2.5 ± 0.7 cm^2
same,BURN WOUNDED AREA (%),"[2]; 3.3 μg/head/day, Day 11",51.6 ± 15.7%
same,BURN WOUNDED AREA,"[2]; 3.3 μg/head/day, Day 15",1.9 ± 0.6 cm^2
same,BURN WOUNDED AREA (%),"[2]; 3.3 μg/head/day, Day 15",40.1 ± 12.8%
same,BURN WOUNDED AREA,"[2]; 10 μg/head/day, Day 1",4.3 ± 0.9 cm^2
same,BURN WOUNDED AREA (%),"[2]; 10 μg/head/day, Day 1",100.0 ± 23.0%
same,BURN WOUNDED AREA,"[2]; 10 μg/head/day, Day 4",3.6 ± 0.8 cm^2
same,BURN WOUNDED AREA (%),"[2]; 10 μg/head/day, Day 4",82.7 ± 18.0%
same,BURN WOUNDED AREA,"[2]; 10 μg/head/day, Day 8",2.9 ± 0.5 cm^2
same,BURN WOUNDED AREA (%),"[2]; 10 μg/head/day, Day 8",68.2 ± 12.3%
same,BURN WOUNDED AREA,"[2]; 10 μg/head/day, Day 11",2.4 ± 0.3 cm^2
same,BURN WOUNDED AREA (%),"[2]; 10 μg/head/day, Day 11",56.8 ± 7.7%
same,BURN WOUNDED AREA,"[2]; 10 μg/head/day, Day 15",2.2 ± 0.4 cm^2
same,BURN WOUNDED AREA (%),"[2]; 10 μg/head/day, Day 15",51.9 ± 8.9%
same,BURN WOUNDED AREA,"[2]; 30 μg/head/day, Day 1",5.2 ± 0.4 cm^2
same,BURN WOUNDED AREA (%),"[2]; 30 μg/head/day, Day 1",100.0 ± 7.0%
same,BURN WOUNDED AREA,"[2]; 30 μg/head/day, Day 4",3.5 ± 0.5 cm^2
same,BURN WOUNDED AREA (%),"[2]; 30 μg/head/day, Day 4",67.6 ± 9.3 %
same,BURN WOUNDED AREA,"[2]; 30 μg/head/day, Day 8",2.9 ± 0.3 cm^2
same,BURN WOUNDED AREA (%),"[2]; 30 μg/head/day, Day 8",55.9 ± 5.1%
same,BURN WOUNDED AREA,"[2]; 30 μg/head/day, Day 11",2.3 ± 0.1 cm^2
same,BURN WOUNDED AREA (%),"[2]; 30 μg/head/day, Day 11",43.9 ± 2.6%
same,BURN WOUNDED AREA,"[2]; 30 μg/head/day, Day 15",1.8 ± 0.4 cm^2
same,BURN WOUNDED AREA (%),"[2]; 30 μg/head/day, Day 15",35.6 ± 8.4%
HU024 (RPTRGDCDLPEFCPG; disulfide 7-13; listed as Homo sapiens),HAIR WEIGHTS,[3]; 20 ug/head/day for 14 days,0.016 ± 0.003 g
same,HAIR WEIGHTS,[3]; 60 ug/head/day for 14 days,0.023 ± 0.008 g
same,HAIR AREA (%),"[4]; 20 ug/head/day, Day 1",0.02 ± 0.01%
same,HAIR AREA (%),"[4]; 20 ug/head/day, Day 4",0.06 ± 0.04%
same,HAIR AREA (%),"[4]; 20 ug/head/day, Day 7",0.44 ± 0.19%
same,HAIR AREA (%),"[4]; 20 ug/head/day, Day 10",7.55 ± 2.56%
same,HAIR AREA (%),"[4]; 20 ug/head/day, Day 14",67.34 ± 9.03%
same,HAIR AREA (%),"[4]; 60 ug/head/day, Day 1",0.04 ± 0.04%
same,HAIR AREA (%),"[4]; 60 ug/head/day, Day 4",0.00 ± 0.00%
same,HAIR AREA (%),"[4]; 60 ug/head/day, Day 7",0.85 ± 0.75%
same,HAIR AREA (%),"[4]; 60 ug/head/day, Day 10",6.56 ± 3.04%
same,HAIR AREA (%),"[4]; 60 ug/head/day, Day 14",55.69 ± 12.45%
same,abnormal response / skin irritation,skin,safe product not causing irritation to the skin

# — patent US10632181B2, “Composition, containing RGD motif-containing peptide or fragment thereof, for treating burns and glaucoma, alleviating skin wrinkles, and promoting hair growth” (HUONS CO., LTD., priority 2014, dated 2020)
